The test system of data set [1] is Sprague Dawley (SD) rat. Description: Measurement of water content of feces. It counts as in vivo. The settings on record: Bis group: loperamide 4 mg/kg + bisacodyl 4 mg/kg, oral; comparison group 29.98±1.89%. From the text: (§1) Laboratory […] under the following conditions were used. • Genealogy and Species: Sprague Dawley (SD) rat • Source: Samtaco Co., Ltd. • Number of purchased animals and gender: Male • Age (week) of purchased animals and weight range: 6 weeks, 190 to 220 • Number of animals (male) at the time of administration: 49 • Age (week) of animals and weight range at the time of administration: 7 weeks, 210 to 240 g.
(§2) After one week of acclimation, the test substance, that is, ioperamide as a conventional constipation inductive material, bisacodyl as a conventional constipation therapeutic agent, the enzyme-degraded products in Examples 1 and 2 (fermented for 24 hours) and the fermented products in Examples 3 and 4, respectively, were repeatedly administered in the stomach once a day for a total of 7 days by means of a syringe for oral administration (Sonde). Except for the control group (Con), all test groups were subjected to administration of loperamide (4 mg/kg) in order to induce constipation.
The feces were sampled daily and the number and weight of the feces were measured. Further, the sampled feces were dried in a drier at 70° C. for 24 hours. A percentage of water content was calculated by subtracting the weight after drying from the weight before drying to estimate the water content and converting the estimated value as the percentage to a total weight of the feces.

In data set [2] the test system is Sprague Dawley (SD) rat. The data set can be described thus: Digestive tract migration rate (activated charcoal). The data set is classed as in vivo. Conditions: oral, 7th day, 30 minutes after charcoal.
From the text: as §1
(§3) After one week of acclimation, the test substance, that is, ioperamide as a conventional constipation inductive material, bisacodyl as a conventional constipation therapeutic agent, the enzyme-degraded products in Examples 1 and 2 (fermented for 24 hours) and the fermented products in Examples 3 and 4, respectively, were repeatedly administered in the stomach once a day for a total of 7 days by means of a syringe for oral administration (Sonde). […]
After fasting a laboratory animal for 15 hours on the 7th day of constipation induction, a 0.5 ml suspension including 10% Arabic gum (Sigma, USA) and 5% activated charcoal (Sigma, USA) was orally administered to the animal. 30 minutes later, the animal was sacrificed, the gastrointestinal tract was removed, and a migration rate was calculated by dividing a length wherein green colored feces are excreted among the intestinal tract length between the duodenum and the rectum, with passage of time. […]

The subject of data set [3] is Sprague Dawley (SD) rat. Description: Measurement of number of feces and feces weight change in loperamide-induced constipation. The data set is classed as in vivo. Conditions: oral.
From the text: as §1, §2
The feces were sampled daily and the number and weight of the feces were measured. Further, the sampled feces were dried in a drier at 70° C. for 24 hours.

In data set [4] the test system is Sprague Dawley (SD) rat. The data set can be described thus: Counting number of intestinal stools remaining in the colon tract. The data set is classed as in vivo. Conditions: oral, 8th day.
From the text: as §1, §2
The number of intestinal stools was counted by scarifying a laboratory rat on the 8th day after administration of loperamide and observing the number of feces remaining in the colon tract.
On the last day of the experiment, all laboratory animals were sacrificed and the number of feces remaining in the rectal region was measured.

Data set [5] is described as follows: Measurement of body weight, dietary intake and amount of drinking water. It counts as in vivo, Sprague Dawley (SD) rat. Conditions: Lop group: loperamide 4 mg/kg alone, oral.
From the text: as §1, §3
The body weight was measured twice a week on the day before the experiment when group separation was conducted, and twice a week on the day after administration, respectively. The experimental dietary intake was measured by feeding 100 g of test diet at a predetermined time and, after 24 hours, the remaining amount was measured to determine the dietary intake. The drinking water was fed by 250 ml at a predetermined time and the remaining water was measured on the next day to determine a total amount of the water intake. […]

Setting [6] is: Bis group: loperamide 4 mg/kg + bisacodyl 4 mg/kg.

As to `CC(=O)Oc1ccc(C(c2ccc(OC(C)=O)cc2)c2ccccn2)cc1` [Bisacodyl], the “Water content of the feces” value with Sprague Dawley (SD) rat [1] is recorded as 44.02±1.34%. Besides, the “Digestive tract migration rate” value in the data set on Sprague Dawley (SD) rat [2] (setting [6]) is recorded as 65.02±2.86%. For the same compound, in the data set on Sprague Dawley (SD) rat [3] (setting [6]), the Weight of feces is 6.82 ± 0.35 g. In the data set with Sprague Dawley (SD) rat [4] (setting [6]), the “Number of feces remaining in the intestinal tract” value is 3.62±0.86.

For the compound `CN(C)C(=O)C(CCN1CCC(O)(c2ccc(Cl)cc2)CC1)(c1ccccc1)c1ccccc1` [Loperamide], the “Body weight change (g) (B) − (A)” value in data set [5] (7 days) stood at 73.45 ± 5.48 g. For the same compound, in data set [5] (once a day for 7 days), the “Body weight (g) After test (B)” value was found to be 278.58 ± 6.82 g. Moreover, the “Digestive tract migration rate” value with Sprague Dawley (SD) rat [2] (Lop group: loperamide 4 mg/kg alone, Con group 68.63±2.72%) turned out to be 42.10±3.49%. The compound further registered a Number of feces in the data set with Sprague Dawley (SD) rat [3] (Lop group: loperamide 4 mg/kg alone, 7th day after induction of constipation, Con group 55.14±2.06) of 44.40±2.54. Moreover, the Weight of feces with Sprague Dawley (SD) rat [3] (Lop group: loperamide 4 mg/kg alone, Con group 7.52±0.30 g) came to 5.02 ± 0.36 g. Also, the “Number of feces remaining in the intestinal tract” value in the data set on Sprague Dawley (SD) rat [4] (Lop group: loperamide 4 mg/kg alone, Con group 1.86±0.55) was determined as 5.66±0.63.

The record behind these values is patent US11324794B2, “Composition for preventing, improving, or treating decrease in intestinal function, comprising bamboo shoot hydrolyzate or fermented bamboo shoot as active ingredient” (OZLDNF CO., LTD., priority 2017, dated 2022).
